Laboratory results from ChEMBL document CHEMBL3885881, “DrugMatrix”.

Species: Rattus norvegicus
Assay: DrugMatrix - Regimen: Daily Repeat
Type: toxicity, organism-based, Sprague-Dawley
Parameters: regimen Daily Repeat, gender Male, age 6-8 weeks
Conditions: in vivo, po, 750 mg/kg, route oral GAVAGE, dose level High, vehicle .5 % CMC; for BASOPHIL / EOSINOPHIL / ERYTHROCYTE COUNT / HEMATOCRIT / HEMOGLOBIN / LEUKOCYTE COUNT / LYMPHOCYTE / MEAN CORPUSCULAR HEMOGLOBIN / MEAN CORPUSCULAR HEMOGLOBIN CONCENTRATION / MEAN CORPUSCULAR VOLUME / MONOCYTE / NEUTROPHIL / PLATELET COUNT: tissue Blood; for ALANINE AMINOTRANSFERASE / ALBUMIN / ALKALINE PHOSPHATASE / ASPARTATE AMINOTRANSFERASE / BLOOD UREA NITROGEN / CARBON DIOXIDE / CHLORIDE / CHOLESTEROL / CREATINE PHOSPHOKINASE / CREATININE / GLUCOSE / LACTATE DEHYDROGENASE / LIPASE / PHOSPHORUS / POTASSIUM / SODIUM / TOTAL BILIRUBIN / TOTAL PROTEIN / URIC ACID: tissue Plasma

Cc1ccc([N+](=O)[O-])cc1 [4-NITROTOLUENE]
BASOPHIL (96 h, time 4 day): 0.3%
EOSINOPHIL (96 h, time 4 day): 0.63%
ERYTHROCYTE COUNT (96 h, time 4 day): 6.55 x10E6/uL
HEMATOCRIT (96 h, time 4 day): 41.57%
HEMOGLOBIN (96 h, time 4 day): 12.83 G/DL
LEUKOCYTE COUNT (96 h, time 4 day): 12.7 x10E3/uL
LYMPHOCYTE (96 h, time 4 day): 82.73%
MEAN CORPUSCULAR HEMOGLOBIN (96 h, time 4 day): 19.6 pg
MEAN CORPUSCULAR HEMOGLOBIN CONCENTRATION (96 h, time 4 day): 30.9 G/DL
MEAN CORPUSCULAR VOLUME (96 h, time 4 day): 63.5 fL
MONOCYTE (96 h, time 4 day): 1.93%
NEUTROPHIL (96 h, time 4 day): 13.9%
PLATELET COUNT (96 h, time 4 day): 1261.33 x10E3/uL
ALANINE AMINOTRANSFERASE (96 h, time 4 day): 28.33 u/L
ALBUMIN (96 h, time 4 day): 3.93 G/DL
ALKALINE PHOSPHATASE (96 h, time 4 day): 300 u/L
ASPARTATE AMINOTRANSFERASE (96 h, time 4 day): 82.67 u/L
BLOOD UREA NITROGEN (96 h, time 4 day): 18.67 mg/dL
CARBON DIOXIDE (96 h, time 4 day): 25.33 mmol/L
CHLORIDE (96 h, time 4 day): 106 MEQ/L
CHOLESTEROL (96 h, time 4 day): 90 mg/dL
CREATINE PHOSPHOKINASE (96 h, time 4 day): 852 u/L
CREATININE (96 h, time 4 day): 0.4 mg/dL
GLUCOSE (96 h, time 4 day): 175.33 mg/dL
LACTATE DEHYDROGENASE (96 h, time 4 day): 320.67 u/L
LIPASE (96 h, time 4 day): 11 u/L
PHOSPHORUS (96 h, time 4 day): 12.03 mg/dL
POTASSIUM (96 h, time 4 day): 6.37 MEQ/L
SODIUM (96 h, time 4 day): 147 MEQ/L
TOTAL BILIRUBIN (96 h, time 4 day): 0.4 mg/dL
TOTAL PROTEIN (96 h, time 4 day): 6.07 G/DL
URIC ACID (96 h, time 4 day): 1.5 mg/dL
BASOPHIL ([…], time 6 day): 0.2%
EOSINOPHIL ([…], time 6 day): 0.4%
ERYTHROCYTE COUNT ([…], time 6 day): 6.89 x10E6/uL
HEMATOCRIT ([…], time 6 day): 50%
HEMOGLOBIN ([…], time 6 day): 14.85 G/DL
LEUKOCYTE COUNT ([…], time 6 day): 11.06 x10E3/uL
LYMPHOCYTE ([…], time 6 day): 89%
MEAN CORPUSCULAR HEMOGLOBIN ([…], time 6 day): 21.5 pg
MEAN CORPUSCULAR HEMOGLOBIN CONCENTRATION ([…], time 6 day): 29.65 G/DL
MEAN CORPUSCULAR VOLUME ([…], time 6 day): 72.6 fL
MONOCYTE ([…], time 6 day): 0.95%
NEUTROPHIL ([…], time 6 day): 9%
PLATELET COUNT ([…], time 6 day): 1574 x10E3/uL
BASOPHIL ([…], time 14 day): 0.68%
EOSINOPHIL ([…], time 14 day): 0.52%
ERYTHROCYTE COUNT ([…], time 14 day): 7.67 x10E6/uL
HEMATOCRIT ([…], time 14 day): 48.12%
HEMOGLOBIN ([…], time 14 day): 15.24 G/DL
LEUKOCYTE COUNT ([…], time 14 day): 10.23 x10E3/uL
LYMPHOCYTE ([…], time 14 day): 81.12%
MEAN CORPUSCULAR HEMOGLOBIN ([…], time 14 day): 19.9 pg
MEAN CORPUSCULAR HEMOGLOBIN CONCENTRATION ([…], time 14 day): 31.7 G/DL
MEAN CORPUSCULAR VOLUME ([…], time 14 day): 62.76 fL
MONOCYTE ([…], time 14 day): 2.12%
NEUTROPHIL ([…], time 14 day): 14.52%
PLATELET COUNT ([…], time 14 day): 1133.4 x10E3/uL
ALANINE AMINOTRANSFERASE ([…], time 6 day): 39 u/L
ALBUMIN ([…], time 6 day): 4.2 G/DL
ALKALINE PHOSPHATASE ([…], time 6 day): 351.67 u/L
ASPARTATE AMINOTRANSFERASE ([…], time 6 day): 89 u/L
BLOOD UREA NITROGEN ([…], time 6 day): 16.67 mg/dL
CARBON DIOXIDE ([…], time 6 day): 29.33 mmol/L
CHLORIDE ([…], time 6 day): 106 MEQ/L
CHOLESTEROL ([…], time 6 day): 68 mg/dL
CREATINE PHOSPHOKINASE ([…], time 6 day): 701.67 u/L
CREATININE ([…], time 6 day): 0.6 mg/dL
GLUCOSE ([…], time 6 day): 151.33 mg/dL
LACTATE DEHYDROGENASE ([…], time 6 day): 127 u/L
LIPASE ([…], time 6 day): 10.67 u/L
PHOSPHORUS ([…], time 6 day): 11.57 mg/dL
POTASSIUM ([…], time 6 day): 6.27 MEQ/L
SODIUM ([…], time 6 day): 149.33 MEQ/L
TOTAL BILIRUBIN ([…], time 6 day): 0.33 mg/dL
TOTAL PROTEIN ([…], time 6 day): 6.5 G/DL
URIC ACID ([…], time 6 day): 1.4 mg/dL
ALANINE AMINOTRANSFERASE ([…], time 14 day): 40.6 u/L
ALBUMIN ([…], time 14 day): 4.04 G/DL
ALKALINE PHOSPHATASE ([…], time 14 day): 340.4 u/L
ASPARTATE AMINOTRANSFERASE ([…], time 14 day): 91.2 u/L
BLOOD UREA NITROGEN ([…], time 14 day): 18.2 mg/dL
CARBON DIOXIDE ([…], time 14 day): 28.6 mmol/L
CHLORIDE ([…], time 14 day): 105.6 MEQ/L
CHOLESTEROL ([…], time 14 day): 66.6 mg/dL
CREATINE PHOSPHOKINASE ([…], time 14 day): 631.6 u/L
CREATININE ([…], time 14 day): 0.56 mg/dL
GLUCOSE ([…], time 14 day): 157.4 mg/dL
LACTATE DEHYDROGENASE ([…], time 14 day): 226.6 u/L
LIPASE ([…], time 14 day): 13.6 u/L
PHOSPHORUS ([…], time 14 day): 12.16 mg/dL
POTASSIUM ([…], time 14 day): 6.96 MEQ/L
SODIUM ([…], time 14 day): 149.8 MEQ/L
TOTAL BILIRUBIN ([…], time 14 day): 0.38 mg/dL
TOTAL PROTEIN ([…], time 14 day): 6.12 G/DL
URIC ACID ([…], time 14 day): 1.8 mg/dL
